Measured values published in US11147272B2, “Pyridone compounds and agricultural and horticultural fungicides comprising the same as active ingredients” (MITSUI CHEMICALS AGRO, INC., priority 2017, dated 2021).

What was measured:
Phytophthora infestans = assay: whole plant or invertebrate; assay type: in vivo; settings: for Test F control value class: class of control value
Alternaia brassicicola = assay: Test Example C: Alternaria sooty spot on cabbage; assay type: in vivo; settings: for Test C control value class: class of control value
Description: Seeds of a test plant (cabbage variety: Shikidori) were planted and cultivated until the cotyledons extended.
<Control Value> Control value=100{1−(n/3)}

Plasmopara viticola = assay: Test Example G: Downy mildew on vine; settings: for Test G control value: 7 to 10 days after inoculation; for Test G control value class: Downy mildew on vine (Neomuscat), 2.5 ml/pot, assessed 7 to 10 days after inoculation
[1] = test system: Colletotrichum orbiculare; assay: Test Example H: Anthracnose on cucumber; settings: for Test H control value: 6 to 10 days after inoculation; for Test H control value class: Anthracnose on cucumber (Sagami Hanjiro), 2.5 ml/pot, assessed 6 to 10 days after inoculation
[2] = test system: Blumeria graminis f. sp. hordei; assay: Test Example D: Powdery mildew on barley; settings: for Test D control value class: class of control value
Magnaporthe grisea = assay: whole plant or invertebrate; assay type: in vivo; settings: for Test A control value class: class of control value
Botrytis cinerea = assay: Test Example B: Gray mold on tomato; settings: for Test B control value class: class of control value
Puccinia recondita = assay: Test Example E: Brown rust on wheat; assay type: in vivo; settings: for Test E control value class: class of control value
[3] = Late blight on tomato, control value class
[4] = Alternaria sooty spot on cabbage, control value class
[5] = Downy mildew on vine, 250 ppm spray
[6] = Anthracnose on cucumber, 250 ppm spray
[7] = Powdery mildew on barley, control value class
[8] = Blast on rice, control value class
[9] = Gray mold on tomato, control value class
[10] = Brown rust on wheat, control value class
[11] = 250 ppm drug solution sprayed on test plant
[12] = 250 ppm drug solution sprayed (2.5 ml/pot), grape Neomuscat
[13] = 250 ppm drug solution sprayed (2.5 ml/pot), cucumber Sagami Hanjiro
[14] = Alternaria sooty spot on cabbage

| Compound | Test F control value (Phytophthora infestans; [3]) | Test C control value (Alternaia brassicicola; [4]) | Test G control value (Plasmopara viticola; [5]) | Test H control value [1, 6] | Test D control value [2, 7] | Test A control value (Magnaporthe grisea; [8]) | Test B control value (Botrytis cinerea; [9]) | Test E control value (Puccinia recondita; [10]) | Test F control value class (Phytophthora infestans; Late blight on tomato) | Test C control value class (Alternaia brassicicola; [14]) | Test G control value class (Plasmopara viticola; 250 ppm spray) | Test H control value class ([1]; 250 ppm spray) | Test D control value class ([2]; Powdery mildew on barley) | Test A control value class (Magnaporthe grisea; Blast on rice) | Test B control value class (Botrytis cinerea; Gray mold on tomato) | Test E control value class (Puccinia recondita; Brown rust on wheat) | other results |
| --- | --- | --- | --- | --- | --- | --- | --- | --- | --- | --- | --- | --- | --- | --- | --- | --- | --- |
| CCCc1cc(Br)c(=O)n(CC)c1-c1ccc(OC)cc1Cl [compound 321] | L (50% or less control value) | H (more than 50% control value) | H (more than 50% control value) | H (more than 50% control value) | H (more than 50% control value) | H (more than 50% control value) | H (more than 50% control value) | H (more than 50% control value) | – | – | – | – | – | – | – | – | – |
| CCn1c(-c2ccc(OC)cc2)c(CC(C)C)ccc1=O [compound 194] | L (50% or less control value) | L (50% or less control value) | L (50% or less control value) | L (50% or less control value) | H (more than 50% control value) | H (more than 50% control value) | H (more than 50% control value) | H (more than 50% control value) | – | – | – | – | – | – | – | – | – |
| CCCc1cc(Cl)c(=O)n(CC)c1-c1c(F)cc(F)cc1F [compound 378] | – | – | – | – | – | – | – | – | – | – | – | – | – | – | – | – | Test F control value (Phytophthora infestans; [11]): L (50% or less control value); Test C control value (Alternaia brassicicola; [11]): H (more than 50% control value); Test G control value (Plasmopara viticola; [12]): L (50% or less control value); Test H control value [1, 13]: H (more than 50% control value); Test D control value [2, 11]: H (more than 50% control value); Test A control value (Magnaporthe grisea; [11]): H (more than 50% control value); Test B control value (Botrytis cinerea; [11]): H (more than 50% control value); Test E control value (Puccinia recondita; [11]): H (more than 50% control value) |
| CCCc1ccc(=O)n(CC)c1-c1c(F)cccc1F [compound 426] | – | – | – | – | – | – | – | – | – | – | – | – | – | – | – | – | Test F control value (Phytophthora infestans; [11]): L (50% or less control value); Test C control value (Alternaia brassicicola; [11]): H (more than 50% control value); Test G control value (Plasmopara viticola; [12]): L (50% or less control value); Test H control value [1, 13]: H (more than 50% control value); Test D control value [2, 11]: L (50% or less control value); Test A control value (Magnaporthe grisea; [11]): H (more than 50% control value); Test B control value (Botrytis cinerea; [11]): H (more than 50% control value); Test E control value (Puccinia recondita; [11]): L (50% or less control value) |
| CCn1c(-c2c(F)cc(F)cc2F)c(C(C)(C)OC)cc(Cl)c1=O [compound 109] | – | – | – | – | – | – | – | – | L (50% or less control value) | H (more than 50% control value) | L (50% or less control value) | H (more than 50% control value) | H (more than 50% control value) | H (more than 50% control value) | H (more than 50% control value) | H (more than 50% control value) | – |
| CCCc1ccc(=O)n(C)c1-c1ccc(F)cc1Br [compound 410] | – | – | – | – | – | – | – | – | – | – | – | – | – | – | – | – | Test F control value (Phytophthora infestans; [11]): L (50% or less control value); Test C control value (Alternaia brassicicola; [11]): L (50% or less control value); Test G control value (Plasmopara viticola; [12]): L (50% or less control value); Test H control value [1, 13]: L (50% or less control value); Test D control value [2, 11]: H (more than 50% control value); Test A control value (Magnaporthe grisea; [11]): L (50% or less control value); Test B control value (Botrytis cinerea; [11]): L (50% or less control value); Test E control value (Puccinia recondita; [11]): H (more than 50% control value) |
| Cn1c(-c2c(F)cc(F)cc2F)c(C(C)(C)C)ccc1=O [compound 68] | – | – | – | – | – | – | – | – | L (50% or less control value) | H (more than 50% control value) | L (50% or less control value) | H (more than 50% control value) | L (50% or less control value) | L (50% or less control value) | L (50% or less control value) | H (more than 50% control value) | – |
| CCCCc1cc(Br)c(=O)n(CC)c1-c1ccc(F)cc1Cl [compound 207] | L (50% or less control value) | H (more than 50% control value) | H (more than 50% control value) | H (more than 50% control value) | H (more than 50% control value) | H (more than 50% control value) | H (more than 50% control value) | H (more than 50% control value) | – | – | – | – | – | – | – | – | – |
| CCn1c(-c2c(F)cc(OC)cc2F)c(CN(OC)C(=O)OC)cc(Cl)c1=O [compound 131] | – | – | – | – | – | – | – | – | L (50% or less control value) | H (more than 50% control value) | H (more than 50% control value) | H (more than 50% control value) | H (more than 50% control value) | H (more than 50% control value) | H (more than 50% control value) | H (more than 50% control value) | – |
| CCn1c(-c2ccc(F)cc2Cl)c(C)ccc1=O [compound 279] | L (50% or less control value) | L (50% or less control value) | L (50% or less control value) | L (50% or less control value) | H (more than 50% control value) | L (50% or less control value) | L (50% or less control value) | L (50% or less control value) | – | – | – | – | – | – | – | – | – |
| CCn1c(-c2c(F)cc(F)cc2F)c(C(C)(C)C)ccc1=O [compound 67] | – | – | – | – | – | – | – | – | L (50% or less control value) | H (more than 50% control value) | L (50% or less control value) | H (more than 50% control value) | H (more than 50% control value) | L (50% or less control value) | H (more than 50% control value) | H (more than 50% control value) | – |
| CCn1c(-c2c(F)cc(OC)cc2F)c(C(=O)C(C)C)cc(Cl)c1=O [compound 73] | – | – | – | – | – | – | – | – | L (50% or less control value) | H (more than 50% control value) | H (more than 50% control value) | H (more than 50% control value) | H (more than 50% control value) | H (more than 50% control value) | H (more than 50% control value) | H (more than 50% control value) | – |
| CC(C)c1cc(Cl)c(=O)n(C)c1-c1c(F)cc(F)cc1F [compound 15] | – | – | – | – | – | – | – | – | L (50% or less control value) | H (more than 50% control value) | L (50% or less control value) | H (more than 50% control value) | H (more than 50% control value) | H (more than 50% control value) | H (more than 50% control value) | H (more than 50% control value) | – |
